No end group written: not given here.
Key:
plasma GH [1] = experiment: Plasma GH response (RIA) in prepubertal obese children after clonidine, galanin and/or GHRH; type: in vivo, human (obese children); conditions: for Mean Peak GH Response: Obese patient group, Clo 150 micrograms/m^2 oral at time 0, GHRH 1 microgram/kg i.v. bolus at 60 min, Gal 50 pmol/kg/min infusion 55-120 min
Experimental: Eight prepubertal obese children (boys), aged 10 to 12.4 years, all in good general health and taking no medication, participated in the study with informed consent (parent and child). All had height within normal percentiles for chronological age. Bone age was advanced 6-24 months in all but one patient and weight was above the […] for chronological age in all cases. The children were tested six times at random intervals ranging from 7 to 10 days, each patient serving as their own control. Studies commenced at 0900 h after an overnight fast and bed rest and thirty minutes after the insertion of a nontrombogenic catheter for blood withdrawal in a forearm vein. The study consisted of administering clonidine (Catapresan, Boehringer Ingelheim, Spain) orally at 150 micrograms/m^2 at time 0 followed by administering GHRH (GRF 1-29, Serono, Spain) as an intravenous bolus at 1 microgram/kg at time 60 minutes. The control experiments consisted of administering on separate occasions either clonidine at time 0 or GHRH at time 60 minutes. Blood samples for GH assays (RIA, BioMerieux, France) were taken at 15 minute intervals for two hours. The mean intra-assay coefficient of variation was 5.9, 4.6 and 3.9% at mean GH concentrations of 1.5, 8 and 24 micrograms/L respectively. To avoid inter-assay variations, all samples from a subject were run in the same assay.
(§1) Galanin (Gal) was administered alone, with clonidine (Clo) and with GHRH by infusion as a saline solution at 50 pmol/kg/min through a Millex-GY (0.22 um, Millipore) filter at time 55 to 120 minutes in all experiments. Also, for comparison purposes a similar group of short stature children diagnosed as having constitutional growth delay (CGD) were administered GHRH, galanin plus GHRH, and clonidine plus GHRH (previous study) by the same procedure.

GH = conditions: normal children and adolescents; reported (ref 9); cited from earlier work
plasma GH [2] = experiment: Plasma GH response in short children with constitutional growth delay (CGD); type: in vivo, human (short stature children
Experimental: as §1

Row | Compound | Mean Peak GH Response (plasma GH [1]) [µg/L] | mean peak (maximal) plasma GH level (plasma GH [1]; obese children) [µg/L] | plasma GH response (in words) (plasma GH [1]; obese children) | maximal GH value in one patient (plasma GH [1]; obese children, single responding patient, at time 105 min) [µg/L] | time of GH peak after administering GHRH (plasma GH [1]; obese children) [min] | GHRH-induced GH response (GH) [µg/L] | Mean Peak GH Response (plasma GH [2]; CGD patient group, same procedure) [µg/L] | mean GH peak (plasma GH [2]; control group of short children with constitutional growth delay) [µg/L]
1 | Clc1cccc(Cl)c1NC1=NCCN1 [Clo, 2-(2,6-dichloroanilino)-2-imidazoline] | 2.9 ± 0.8 | 2.9 ± 0.8 | did not produce any significant plasma GH increase | 6.5 | – | – | – | –
2 | GHRH: growth hormone releasing hormone, GRF 1-29 (Serono, Spain) (YADAIFTNSYRKVLGQLSARKLLQDIMSR; ends and bridges not checked; UniProt P01286 32-60, looked up, fragment) | 9.6 ± 2 | 9.6 ± 2 | slight but significant increase in plasma GH | – | 45 | 25.8 ± 5.6 | 17.1 ± 4.3 | 17.1 ± 4.3

Reference: patent publication US5120713A, “Treatment of obesity with an alpha-2-adrenergic agonist and a growth hormone releasing peptide” (Applied Research Systems ARS Holding N.V., priority 1990, dated 1992)
